Molecules are shown by their SMILES. Where only a bound is given, the exact number is not on record here.

The subject of this experiment is HEK293T cells carrying the ATF4 luciferase reporter. Description: ATF4-Luc assay, in vitro model of Vanishing Cell White Matter Disease (VWMD). In kind it is cell-based. As to conditions: Homo sapiens, HEK-293T, 1 μg/mL tunicamycin, 7 hours, One Glo luminescence. The gist of the method:
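Reporter cells were stably generated by retroviral transduction and puromycin selection, then seeded at 30,000 cells/well. Next day, cells received 1 μg/mL tunicamycin with 200 nM test compound for 7 h, and luciferase luminescence was read with a one-step reagent. Values reported as EC50.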
The EC50 is the concentration needed to bring the measured effect to its halfway point. `O=C(COc1ccc(Cl)c(F)c1)NC12CC(Nc3nccc(-c4cnn(C(F)F)c4)n3)(C1)C2` [Compound 382, 2-(4-chloro-3-fluorophenoxy)-N-[3-({4-[1-(difluoromethyl)-1H-pyrazol-4-yl]pyrimidin-2-yl}amino)bicyclo[1.1.1]pentan-1-yl]acetamide]: the concentration for a half-maximal effect (EC50) was > 2000 nM.
Regarding `CCOc1cc(C)nc(NC23CC(NC(=O)COc4ccc(Cl)c(F)c4)(C2)C3)n1` [Compound 383, 2-(4-chloro-3-fluorophenoxy)-N-{3-[(4-ethoxy-6-methylpyrimidin-2-yl)amino]bicyclo[1.1.1]pentan-1-yl}acetamide], the 50% effective concentration (EC50) is > 2000 nM.
As for `O=C(COc1ccc(Cl)c(F)c1)NC12CC(Nc3ccnc4cc(Cl)ccc34)(C1)C2` [Compound 384, 2-(4-chloro-3-fluorophenoxy)-N-{3-[(7-chloroquinolin-4-yl)amino]bicyclo[1.1.1]pentan-1-yl}acetamide], the figure is < 50 nM; as for `O=C(COc1ccc(C(F)(F)F)nc1)NC12CC(Nc3ccnc4cc(Cl)ccc34)(C1)C2` [Compound 385, N-{3-[(7-chloroquinolin-4-yl)amino]bicyclo[1.1.1]pentan-1-yl}-2-{[6-(trifluoromethyl)pyridin-3-yl]oxy}acetamide], 250 to 1000 nM; as for `CC(C)(O)c1cccc(C(=O)NC23CC(NC(=O)COc4ccc(Cl)c(F)c4)(C2)C3)c1` [Compound 386, N-{3-[2-(4-chloro-3-fluorophenoxy)acetamido]bicyclo[1.1.1]pentan-1-yl}-3-(2-hydroxypropan-2-yl)benzamide], > 2000 nM.
As to `O=C(COc1ccc(Cl)c(F)c1)NC12CC(NC(=O)c3ccc4c(c3)OCCO4)(C1)C2` [Compound 387, N-{3-[2-(4-chloro-3-fluorophenoxy)acetamido]bicyclo[1.1.1]pentan-1-yl}-2,3-dihydro-1,4-benzodioxine-6-carboxamide], the EC50 is 50 to 250 nM.
As to `Cn1nccc1C(=O)NC12CC(NC(=O)COc3ccc(Cl)c(F)c3)(C1)C2` [Compound 388, N-{3-[2-(4-chloro-3-fluorophenoxy)acetamido]bicyclo[1.1.1]pentan-1-yl}-1-methyl-1H-pyrazole-5-carboxamide], the EC50 lay in the range of 250 to 1000 nM.
With `Cn1ccc(C(=O)NC23CC(NC(=O)COc4ccc(Cl)c(F)c4)(C2)C3)n1` [Compound 389, N-{3-[2-(4-chloro-3-fluorophenoxy)acetamido]bicyclo[1.1.1]pentan-1-yl}-1-methyl-1H-pyrazole-3-carboxamide] the figure was 250 to 1000 nM; with `O=C(COc1ccc(Cl)c(F)c1)NC12CC(NC(=O)c3cc(NC4CC4)ccn3)(C1)C2` [Compound 390, N-{3-[2-(4-chloro-3-fluorophenoxy)acetamido]bicyclo[1.1.1]pentan-1-yl}-4-(cyclopropylamino)pyridine-2-carboxamide], 1000 to 2000 nM; with `O=C(COc1ccc(Cl)c(F)c1)NC12CC(NC(=O)c3cc(CNC(=O)C4CC4)ccn3)(C1)C2` [Compound 391, N-{3-[2-(4-chloro-3-fluorophenoxy)acetamido]bicyclo[1.1.1]pentan-1-yl}-4-{[(cyclopropanecarbonyl)amino]methyl}pyridine-2-carboxamide], 250 to 1000 nM.
As for `O=C(COc1ccc(Cl)c(F)c1)NC12CC(NC(=O)c3cc(-c4ccc(Cl)cc4)no3)(C1)C2` [Compound 392, N-{3-[2-(4-chloro-3-fluorophenoxy)acetamido]bicyclo[1.1.1]pentan-1-yl}-3-(4-chlorophenyl)-1,2-oxazole-5-carboxamide], the concentration giving a half-maximal response (EC50) is < 50 nM.
In the case of `Cc1nnc(NC23CC(NC(=O)COc4ccc(Cl)c(F)c4)(C2)C3)o1` [Compound 393, 2-(4-chloro-3-fluorophenoxy)-N-{3-[(5-methyl-1,3,4-oxadiazol-2-yl)amino]bicyclo[1.1.1]pentan-1-yl}acetamide], the half-maximal effective concentration (EC50) is > 2000 nM.
On to `Cc1cc2c(NC34CC(NC(=O)COc5ccc(Cl)c(F)c5)(C3)C4)nccn2n1` [Compound 394, 2-(4-chloro-3-fluorophenoxy)-N-{3-[(2-methylpyrazolo[1,5-a]pyrazin-4-yl)amino]bicyclo[1.1.1]pentan-1-yl}acetamide], for which the EC50 was < 50 nM.
As for `O=C(COc1ccc(Cl)c(F)c1)NC12CC(Nc3cncc(-c4ccc(Cl)cc4)n3)(C1)C2` [Compound 395, 2-(4-chloro-3-fluorophenoxy)-N-(3-{[6-(4-chlorophenyl)pyrazin-2-yl]amino}bicyclo[1.1.1]pentan-1-yl)acetamide], the figure is > 2000 nM; as for `O=C(COc1ccc(Cl)c(F)c1)NC12CC(NC(=O)c3ccc4oc(=O)ccc4c3)(C1)C2` [Compound 396, N-{3-[2-(4-chloro-3-fluorophenoxy)acetamido]bicyclo[1.1.1]pentan-1-yl}-2-oxo-2H-1-benzopyran-6-carboxamide], 250 to 1000 nM; as for `COc1ccccc1-c1cc(C(=O)NC23CCC(NC(=O)COc4ccc(Cl)c(F)c4)(CC2)C(O)C3)on1` (stereo not shown) [Compound 397, N-{4-[2-(4-chloro-3-fluorophenoxy)acetamido]-3-hydroxybicyclo[2.2.2]octan-1-yl}-3-(2-methoxyphenyl)-1,2-oxazole-5-carboxamide], 50 to 250 nM.
With `O=C(COc1ccc(Cl)c(F)c1)NC12CC(Nc3cccc(-c4ccc(Cl)cc4)n3)(C1)C2` [Compound 398, 2-(4-chloro-3-fluorophenoxy)-N-(3-{[6-(4-chlorophenyl)pyridin-2-yl]amino}bicyclo[1.1.1]pentan-1-yl)acetamide] the figure was > 2000 nM; with `CCc1cc(C(=O)NC23CC(NC(=O)COc4ccc5c(c4)OC(F)(F)O5)(C2)C3)n(C)n1` [Compound 399, N-(3-{2-[(2,2-difluoro-2H-1,3-benzodioxol-5-yl)oxy]acetamido}bicyclo[1.1.1]pentan-1-yl)-3-ethyl-1-methyl-1H-pyrazole-5-carboxamide], 250 to 1000 nM.
Regarding `O=C(COc1ccc2c(c1)OC(F)(F)O2)NC12CC(NC(=O)c3ccccn3)(C1)C2` [Compound 400, N-(3-{2-[(2,2-difluoro-2H-1,3-benzodioxol-5-yl)oxy]acetamido}bicyclo[1.1.1]pentan-1-yl)pyridine-2-carboxamide], the EC50 fell in the range of 250 to 1000 nM.
Turning to `O=C(COc1ccc2c(c1)OC(F)(F)O2)NC12CC(NC(=O)c3cc(CO)ccn3)(C1)C2` [Compound 401, N-(3-{2-[(2,2-difluoro-2H-1,3-benzodioxol-5-yl)oxy]acetamido}bicyclo[1.1.1]pentan-1-yl)-4-(hydroxymethyl)pyridine-2-carboxamide], the concentration giving a half-maximal response (EC50) fell in the range of 250 to 1000 nM.
As to `O=C(COc1ccc(Cl)c(F)c1)NC12CC(NC(=O)c3ccc[n+]([O-])c3)(C1)C2` [Compound 402, N-{3-[2-(4-chloro-3-fluorophenoxy)acetamido]bicyclo[1.1.1]pentan-1-yl}-1-oxo-1λ^5-pyridine-3-carboxamide], the concentration for a half-maximal effect (EC50) was > 2000 nM.
Consider `O=C(COc1ccc(Cl)c(F)c1)NC12CC(NC(=O)c3cccc[n+]3[O-])(C1)C2` [Compound 403, N-{3-[2-(4-chloro-3-fluorophenoxy)acetamido]bicyclo[1.1.1]pentan-1-yl}-1-oxo-1λ^5-pyridine-2-carboxamide], for which the 50% effective concentration (EC50) is > 2000 nM.
As for `O=C(COc1ccc(Cl)c(F)c1)NC12CC(Nc3nnc(-c4ccccc4)o3)(C1)C2` [Compound 404, 2-(4-chloro-3-fluorophenoxy)-N-{3-[(5-phenyl-1,3,4-oxadiazol-2-yl)amino]bicyclo[1.1.1]pentan-1-yl}acetamide], the EC50 is > 2000 nM.
For the compound `CCn1ccc(C(=O)NC23CC(NC(=O)COc4ccc(Cl)c(F)c4)(C2)C3)cc1=O` [Compound 405, N-{3-[2-(4-chloro-3-fluorophenoxy)acetamido]bicyclo[1.1.1]pentan-1-yl}-1-ethyl-2-oxo-1,2-dihydropyridine-4-carboxamide], the EC50 is > 2000 nM.
With `CC(C)c1csc(C(=O)NC23CC(NC(=O)COc4ccc(Cl)c(F)c4)(C2)C3)n1` [Compound 406, N-{3-[2-(4-chloro-3-fluorophenoxy)acetamido]bicyclo[1.1.1]pentan-1-yl}-4-(propan-2-yl)-1,3-thiazole-2-carboxamide] the figure was 50 to 250 nM; with `O=C(COc1ccc(Cl)c(F)c1)NC12CCC(NC(=O)c3ccc4oc(=O)ccc4c3)(CC1)[C@@H](O)C2` [Compound 407, N-{(2S)-4-[2-(4-chloro-3-fluorophenoxy)acetamido]-2-hydroxybicyclo[2.2.2]octan-1-yl}-2-oxo-2H-1-benzopyran-6-carboxamide], 1000 to 2000 nM; with `O=C(COc1ccc(Cl)c(F)c1)NC12CCC(NC(=O)c3cc(C4CCCCC4)no3)(CC1)CC2O` (stereo not shown) [Compound 408, N-{4-[2-(4-chloro-3-fluorophenoxy)acetamido]-3-hydroxybicyclo[2.2.2]octan-1-yl}-3-cyclohexyl-1,2-oxazole-5-carboxamide], > 2000 nM.
`O=C(COc1ccc(Cl)c(F)c1)NC12CCC(NC(=O)c3cc(-c4c(F)cccc4F)no3)(CC1)CC2O` (stereo not shown) [Compound 409, N-{4-[2-(4-chloro-3-fluorophenoxy)acetamido]-3-hydroxybicyclo[2.2.2]octan-1-yl}-3-(2,6-difluorophenyl)-1,2-oxazole-5-carboxamide]: the EC50 lay in the range of 50 to 250 nM.
Consider `O=C(COc1ccc(Cl)c(F)c1)NC12CCC(NC(=O)c3cc(Cc4ccc(Cl)cc4)no3)(CC1)CC2O` (stereo not shown) [Compound 410, N-{4-[2-(4-chloro-3-fluorophenoxy)acetamido]-3-hydroxybicyclo[2.2.2]octan-1-yl}-3-[(4-chlorophenyl)methyl]-1,2-oxazole-5-carboxamide], for which the concentration for a half-maximal effect (EC50) was in the range of 50 to 250 nM.
As for `O=C(COc1ccc(Cl)c(F)c1)NC12CCC(NC(=O)c3cc(O)no3)(CC1)CC2O` (stereo not shown) [Compound 411, N-{4-[2-(4-chloro-3-fluorophenoxy)acetamido]-3-hydroxybicyclo[2.2.2]octan-1-yl}-3-hydroxy-1,2-oxazole-5-carboxamide], the figure is > 2000 nM.
`Cn1cnc2noc(C(=O)NC34CCC(NC(=O)COc5ccc(Cl)c(F)c5)(CC3)C(O)C4)c21` (stereo not shown) [Compound 412, N-{4-[2-(4-chloro-3-fluorophenoxy)acetamido]-3-hydroxybicyclo[2.2.2]octan-1-yl}-4-methyl-4H-imidazo[4,5-c][1,2]oxazole-3-carboxamide]: the concentration giving a half-maximal response (EC50) is > 2000 nM.

Values taken from patent publication US10913727B2, “Modulators of the integrated stress pathway” (Calico Life Sciences LLC, priority 2016, dated 2021).
